Experimental data reported in US20240197680A1, “VORUCICLIB DOSING REGIMENS AND METHODS OF TREATMENT INCLUDING THE SAME” (MEI Pharma, Inc., priority 2021, published 2024).

Assays:
Gelling in aqueous media = format: physicochemical
Description: Voruciclib can form a gel when dissolved in various media, depending on the other chemicals present. […] In general, voruciclib was more prone to gel at suspension concentrations >5 mg/mL and solubilities >0.5 mg/mL.

Solid Tumors [1] = test: Monotherapy Phase 1 study in solid tumors, daily continuously schedule; format: in vivo, human
[2] = PK of voruciclib, 2 weeks of daily dosing followed by 1 week without dosing in a 21-day cycle (Table 1); format: in vivo, human; conditions: mean
clinical = conditions: human, in vivo
From the text: Voruciclib half-life is designated as t1/2 in the tables (expressed in hours). […] There is interpatient variability, explaining the outlier values.

Solid Tumors [3] = test: Monotherapy Phase 1 study in solid tumors, 2 weeks on/1 week off schedule; format: in vivo, human; conditions: 29 pts
[4] = test system: HCT-116 CRC cell xenograft; conditions: SCID, mouse, in vivo, po, 100 mg/kg
Description: Animals were randomized into 2 groups when tumors reached 100 mm diameter. Group A assigned single dosing. […] Drug concentration was measured in tumor and plasma after last dose at the following time points: 0, 4, 8, 24, 48, 72 hrs. […] Concentration of voruciclib in plasma is in units of μg/ml and in μg/g for tumors.

c-MYC expression = test: Gene biomarkers in Phase 1 daily dosing study: c-MYC expression in solid tumors; format: in vivo, human
[5] = Monotherapy Phase 1 studies in solid tumors: safety profile; format: in vivo, human; conditions: Phase 1 monotherapy
[6] = test system: Relapsed/Refractory B-cell malignancies; Relapsed/Refractory AML; format: in vivo, human
Description: Study population: Relapsed/Refractory B-cell malignancies; Relapsed/Refractory AML; Dose escalation with standard 3+3 design.
Endpoints: Safety and tolerability, Pharmacokinetics, Biologic correlative studies (BH3 profiling, MCL-1 expression, molecular mutations analysis), Response rates.
Voruciclib single agent dose escalation: 50 mg>100 mg>150 mg>200 mg.
Differentiation syndrome seen in 5 pts (50%) (Increased WBC without increased in blasts, bone pain, pulmonary symptoms; Response to corticosteroids).

[7] = test system: Venetoclax Sensitive and Resistant Cell Lines; test: Synergy with venetoclax in cell lines; format: cell-based; conditions: Ven Sensitive and Ven Resistant cell lines
From the text: FIG. 4A: Ven Sensitive; FIG. 4B: Ven Resistant.

[8] = PK of voruciclib, daily dosing continuously (Table 2); format: in vivo, human; conditions: mean; for Accumulation Ratio (AUC0-t): Day 15/Day 1

solubility at which more prone to gel (Gelling in aqueous media): > 500 µg/mL
suspension concentration at which more prone to gel (Gelling in aqueous media): > 5 mg/mL
Gelling (Gelling in aqueous media; pH 1.6 (FaSSGF)): Gelling was observed
Gelling (Gelling in aqueous media; pH 6.5 (FaSSIF)): Gelling was observed
t½ ([2]; Day 1, 600 mg): 32.544 h
AUC0-∞ ([2]; Day 13, 300 mg): 59331.780 ng·h/mL
t½ ([2]; Day 13, 300 mg): 16.166 h
t½ ([2]; Day 13, 850 mg): 22.380 h
additional time to clear from the tissue after it clears the plasma (clinical): 3 days
half-life (clinical): 120 to 240 h
level in tumor at 8 hours compared to 24 hours post dosing [4]: > 5 fold
Cmax and AUC dose dependence ([6]; human, in vivo): Dose proportional
volume of distribution ([6]; human, in vivo): High
t½ ([8]; Day 1, 75 mg): 21.776 h
AUC0-∞ ([8]; Day 1, 150 mg): 15592.890 ng·h/mL
AUC0-∞ ([8]; Day 1, 250 mg): 16383.699 ng·h/mL
Cmax ([8]; Day 1, 250 mg): 471.955 ng/mL
AUC0-24 ([8]; Day 1, 350 mg): 10388.095 ng·h/mL
CL/F ([8]; Day 1, 350 mg): 4.224 L/h
AUC0-24 ([8]; Day 1, 500 mg): 16370.472 ng·h/mL
AUC0-t ([8]; Day 1, 500 mg): 16370.472 ng·h/mL
CL/F ([8]; Day 1, 500 mg): 2.107 L/h
Accumulation Ratio (AUC0-t) ([8]; 75 mg): 2.634
Accumulation Ratio (AUC0-t) ([8]; 150 mg): 3.637
Accumulation Ratio (AUC0-t) ([8]; 250 mg): 3.090
Accumulation Ratio (AUC0-t) ([8]; 350 mg): 2.767
Accumulation Ratio (AUC0-t) ([8]; 500 mg): 2.577
AUC0-∞ ([8]; Day 15, 75 mg): 27200.362 ng·h/mL
AUC0-24 ([8]; Day 15, 150 mg): 16642.661 ng·h/mL
AUC0-t ([8]; Day 15, 150 mg): 16642.661 ng·h/mL
AUC0-∞ ([8]; Day 15, 150 mg): 164073.250 ng·h/mL
t½ ([8]; Day 15, 150 mg): 131.733 h
Cmax ([8]; Day 15, 250 mg): 1047.832 ng/mL
t½ ([8]; Day 15, 250 mg): 38.750 h
AUC0-∞ ([8]; Day 15, 350 mg): 164113.625 ng·h/mL
CL/F ([8]; Day 15, 350 mg): 1.607 L/h
AUC0-24 ([8]; Day 15, 500 mg): 40465.337 ng·h/mL
AUC0-t ([8]; Day 15, 500 mg): 40465.337 ng·h/mL
AUC0-∞ ([8]; Day 15, 500 mg): 108301.704 ng·h/mL
CL/F ([8]; Day 15, 500 mg): 1.031 L/h
Compound: CN1CC[C@@H](c2c(O)cc(O)c3c(=O)cc(-c4ccc(C(F)(F)F)cc4Cl)oc23)[C@@H]1CO [Voruciclib, (+)-trans-2-(2-chloro-4-trifluoromethylphenyl)-5,7-dihydroxy-8-(2-hydroxymethyl-1-methylpyrrolidin-3-yl)-chromen-4-one]
duration of SD, median (Solid Tumors [1]): 15 weeks
PR (number of patients) (Solid Tumors [3]): 1
patients with decreased c-MYC expression / patients tested (c-MYC expression): 17/25
most common AEs [5]: involved GI tract
myelosuppression [5]: no evidence of myelosuppression
Differentiation syndrome (number of pts) ([6]; AML patients): 5
Differentiation syndrome (share of pts) ([6]; AML patients): 50%
GI toxicity or neutropenia ([6]; in vivo): No GI toxicity or neutropenia
synergy with Venetoclax [7]: Synergizes
